# According to ChEMBL document CHEMBL1142925, “Optimization and determination of the absolute configuration of a series of potent inhibitors of human papillomavirus type-11 E1-E2 protein-protein interaction: a combined medicinal chemistry, NMR and computational chemistry approach” (Bioorg Med Chem, 2007):
# Calls of active or inactive are those of the source. The rule behind the calls is not given here.
# Columns and labels:
# [1] = Inhibition of HPV11 E1-E2 protein-protein interaction by E1-E2-ori-complex formation assay
# [2] = target: Large T antigen (Simian virus 40) (UniProt P03070); assay: Inhibition of binding of SV40 large T antigen to DNA by scintillation proximity assay; details: Betapolyomavirus macacae
# Large T antigen (Simian virus 40), sequence (P03070 whole entry): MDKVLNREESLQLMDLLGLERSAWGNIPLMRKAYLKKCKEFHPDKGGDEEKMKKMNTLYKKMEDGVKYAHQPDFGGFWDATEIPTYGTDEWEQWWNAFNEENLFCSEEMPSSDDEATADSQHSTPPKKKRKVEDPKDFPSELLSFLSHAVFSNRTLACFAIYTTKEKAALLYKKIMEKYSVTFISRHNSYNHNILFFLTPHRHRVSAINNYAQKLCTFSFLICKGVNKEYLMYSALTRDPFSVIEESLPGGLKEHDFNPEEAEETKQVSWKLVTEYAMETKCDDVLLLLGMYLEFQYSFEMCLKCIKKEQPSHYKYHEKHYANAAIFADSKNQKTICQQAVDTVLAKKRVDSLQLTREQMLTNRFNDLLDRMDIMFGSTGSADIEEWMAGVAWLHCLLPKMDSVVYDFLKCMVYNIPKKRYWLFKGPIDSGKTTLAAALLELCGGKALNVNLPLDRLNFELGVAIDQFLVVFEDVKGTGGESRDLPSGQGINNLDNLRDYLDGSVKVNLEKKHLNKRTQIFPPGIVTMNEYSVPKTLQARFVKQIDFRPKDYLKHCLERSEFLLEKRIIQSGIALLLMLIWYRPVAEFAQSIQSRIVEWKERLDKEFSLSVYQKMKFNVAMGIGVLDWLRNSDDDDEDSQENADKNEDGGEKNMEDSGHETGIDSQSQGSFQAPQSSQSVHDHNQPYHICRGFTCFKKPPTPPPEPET
SMILES,IC50 [1] [nM],Activity [2]
Cc1ccc2c(c1)C(=O)[C@@]1(O[C@@H](c3ccc(Cl)c(Cl)c3)[C@@H](C(=O)Nc3ccc(-c4csnn4)cc3)[C@H]1C(=O)O)C2=O,180,inactive
Cc1cc2c(s1)C(=O)[C@@]1(O[C@@H](c3ccc(Br)c(Br)c3)[C@@H](C(=O)Nc3ccc(N4CCOCC4)cc3)[C@H]1C(=O)O)C2=O,460,inactive
CC(C)(C)NC(=O)[C@H]1[C@@H](C(=O)O)C2(O[C@H]1c1ccc(Cl)c(Cl)c1)C(=O)c1ccccc1C2=O,2100,inactive
CC(=O)c1ccc(NC(=O)[C@H]2[C@@H](C(=O)O)C3(O[C@H]2c2ccc(Cl)c(Cl)c2)C(=O)c2ccccc2C3=O)cc1,380,inactive
C[C@@H](NC(=O)[C@H]1[C@H]2C(=O)O[C@]3(O)c4ccccc4C(=O)[C@]23O[C@H]1c1ccc(Cl)c(Cl)c1)c1ccccc1,6800,inactive
CC(=O)Nc1ccccc1NC(=O)[C@H]1[C@@H](C(=O)O)C2(O[C@H]1c1ccc(Cl)c(Cl)c1)C(=O)c1ccccc1C2=O,65000,inactive
O=C(Nc1ccc2c(c1)OCO2)[C@H]1[C@@H](C(=O)O)C2(O[C@H]1c1ccc(Cl)c(Cl)c1)C(=O)c1ccccc1C2=O,350,inactive
C[C@@H](NC(=O)[C@H]1[C@@H](c2ccc(Cl)c(Cl)c2)O[C@@]23C(=O)c4ccccc4[C@]2(O)OC(=O)[C@@H]13)c1ccccc1,> 75000,inactive
O=C(Nc1ccc(N2CCOCC2)cc1)[C@H]1[C@@H](C(=O)O)C2(O[C@H]1c1ccc(Br)c(Br)c1)C(=O)c1ccccc1C2=O (stereo in doubt; 21) [listing 1 of 2 here],,inactive
Cc1cc2c(s1)C(=O)[C@]1(O[C@@H](c3ccc(Br)c(Br)c3)[C@@H](C(=O)Nc3ccc(N4CCOCC4)cc3)[C@H]1C(=O)O)C2=O,6,inactive
O=C(Nc1ccccc1)[C@H]1[C@@H](C(=O)O)C2(O[C@H]1c1ccc(Cl)c(Cl)c1)C(=O)c1ccccc1C2=O,680,inactive
O=C(Nc1ccc(N2CCOCC2)cc1)[C@H]1[C@@H](C(=O)O)C2(O[C@H]1c1ccc(Br)c(Br)c1)C(=O)c1ccccc1C2=O (stereo in doubt; 19) [listing 1 of 2 here],,inactive
O=C(Nc1ccc(-c2csnn2)cc1)[C@H]1[C@@H](C(=O)O)C2(O[C@H]1c1ccc(Cl)c(Cl)c1)C(=O)c1ccccc1C2=O,150,inactive
O=C(Nc1ccc2c(c1)OCO2)[C@H]1[C@H]2C(=O)O[C@]3(O)c4ccccc4C(=O)[C@]23O[C@H]1c1ccc(Cl)cc1,6600,inactive
O=C(Nc1ccc(N2CCOCC2)cc1)[C@H]1[C@@H](C(=O)O)C2(O[C@H]1c1ccc(Br)c(Br)c1)C(=O)c1ccccc1C2=O (stereo in doubt; 19) [listing 2 of 2 here],51,
O=C(NCc1ccccc1)[C@H]1[C@@H](C(=O)O)C2(O[C@H]1c1ccc(Cl)c(Cl)c1)C(=O)c1ccccc1C2=O,3500,inactive
O=C(Nc1ccc(N2CCOCC2)cc1)[C@H]1[C@@H](c2ccc(Br)c(Br)c2)OC2(C(=O)c3ccccc3C2=O)[C@H]1C(=O)O,15000,inactive
O=C(Nc1ccc2c(c1)OCO2)[C@H]1[C@@H](C(=O)O)C2(O[C@H]1c1ccc(Cl)cc1)C(=O)c1ccccc1C2=O,7800,inactive
CC(=O)Nc1cccc(NC(=O)[C@H]2[C@@H](C(=O)O)C3(O[C@H]2c2ccc(Cl)c(Cl)c2)C(=O)c2ccccc2C3=O)c1,740,inactive
O=C(Nc1ccc(N2CCOCC2)cc1)[C@H]1[C@@H](C(=O)O)C2(O[C@H]1c1ccc(Cl)c(Cl)c1)C(=O)c1ccccc1C2=O,88,inactive
CC(=O)Nc1ccc(NC(=O)[C@H]2[C@@H](C(=O)O)C3(O[C@H]2c2ccc(Cl)c(Cl)c2)C(=O)c2ccccc2C3=O)cc1,440,inactive
O=C(Nc1ccc(N2CCOCC2)cc1)[C@H]1[C@@H](C(=O)O)C2(O[C@H]1c1ccc(Br)c(Br)c1)C(=O)c1ccccc1C2=O (stereo in doubt; 21) [listing 2 of 2 here],28,
